According to patent US8735443B2, “Method of treating diabetes-related vascular complications” (Kuwait University, priority 2008, dated 2014):

Columns and labels:
[1] = tested on: diabetic fibroblasts (DFs); assay: Cell viability after hydrogen peroxide (Cell Counting Kit-8), diabetic fibroblasts; format: cell-based, rat; details: diabetic fibroblasts, lipoic acid 500 μM, Nrf2-dependent
Excerpt: To determine the effect of α-lipoic acid on isolated cells from normal and diabetic rats, primary rat fibroblasts were derived from dorsal skin biopsies performed on four diabetic Coto Kakizaki rats (DFs) and four age-matched (12-14 months) and sex-matched (female) Wistar control rats (CFs). After sterilization in povidine solution, the rat skin was washed in sterile water and rinsed in 70% ethanol in phosphate-buffered saline (PBS). The epidermis and dermis were separated following overnight incubation in 0.25% Trypsin/EDTA at 4° C. Samples were washed, diced and digested for thirty minutes at 37° C. in collagenase type I (250 U/ml) dissolved in Dulbecco's modified Eagle medium (DMEM; Invitrogen) containing penicillin (100 U/ml), 2 mM L-glutamine and 26 mM HEPES. After collagenase treatment, the cells were dislodged, centrifuged and resuspended in medium supplemented with 10% fetal bovine serum. The cells were grown under standard conditions, and the medium was changed every three to four days. Control and diabetic fibroblasts were grown under normo-glycemic conditions (5.5 mM glucose) and used in experiments at passage 3 to 5.
Fibroblasts were seeded at 1×10^4 cells/well on a 96-well plate. After a 24 hour incubation period, the cells were exposed to various concentrations of HP in serum-free medium at 37° C. for 2 hours [lactate dehydrogenase (LDH), a marker for necrotic cell death], or for 16 hours (cell viability). Quantification of cell viability was assessed using a Cell Counting Kit-8 (Dojindo, Kumamoto, Japan). The values obtained were normalized to the vehicle-treated cells. To measure the rate of necrotic cell death, an LDH release assay was performed using a CytoTox-ONE Homogeneous Membrane Integrity Assay kit (Promega). Expression of Nrf2 was inhibited by small-interfering RNA (siRNA) oligonucleotides. The sequences were designed and synthesized by Qiagen. The best silencing efficiency was obtained by incubating 2.0×10^5 cells/well in a 6-well plate with complexes formed by 5 nM siRNA (1 μl) and 9 μL of HiPerfect transfection reagent (Qiagen) dissolved in 90 μl medium, according to the manufacturer's instructions. The transfection was achieved by adding 0.9 ml of medium to the seeded cells followed by 100 μl of siRNA/HiPerfect complex. Knock-out efficiency was verified by real-time PCR and Western blot. Twenty-four hours later, 1 ml of fresh medium was added; 48 hr after transfection the cells were exposed to either vehicle or lipoic acid at a concentration of 500 μM.

IL-6 = assay: Aortic mRNA expression by QRT-PCR, IL-6; format: in vivo, rat; details: GK rats, LA therapy
Experimental: An expression of a number of inflammatory markers, including IL-6 and ICAM-1, were measured in control, diabetic and LA-treated diabetic vessels. The results confirmed marked elevation in the vascular expression of both […] and ICAM-1 during diabetes, as shown in FIGS. 11A and 11B. […] Aortic expression of IL-6 is shown in FIG. 11A and aortic expression of intracellular adhesion molecule (ICAM-1) is shown in FIG. 11B. Both were determined using QRT-PCR based techniques.

nox-1 = assay: Aortic mRNA expression by real-time PCR, nox-1; format: in vivo, rat; details: aorta of LA-treated GK rats
Experimental: Further, with regard to quantitative real-time polymerase chain reactions (PCR) in the study, total RNA from the arterial samples was isolated using TRIZOL® reagent, and RNA integrity was verified by agarose gel electrophoresis and quantified by spectrophotometry. Reverse transcription reaction of total RNA (5 μg) was performed using a superscript 111 first-strand synthesis system. Quantitative real-time PCR was performed using fast SYBR Green QPCR. […]
The housekeeping gene beta-actin was used for internal normalization. Fidelity of the PCR reaction was determined by melting temperature analysis. PCR efficiency for each primer pair was determined by quantitating amplification with increasing concentration of template cDNA. […] RNA expression of target genes was calculated based on the real-time PCR efficiency E and the threshold crossing point (CP) and is expressed relative to the reference gene beta-actin.

NF-κB = NF-κB expression by western blotting, HEK-293; format: cell-based; details: HEK-293 (parental cells) exposed to α-lipoic acid
Excerpt: Alpha-lipoic acid increased HEK-499 cells, which were engineered to be resistant to chemotherapies and radiotherapies by depleting Raf Kinase inhibitory protein resistance to lethal doses of cisplatin, a chemical used in cancer therapy.

protein-bound carbonyls = assay: Aortic content of protein-bound carbonyls; details: aorta of LA-treated GK rats
[2] = tested on: thiobarbituric acid reactive substances; assay: Aortic content of TBARS (lipid peroxidation); format: in vivo, rat; details: aorta of LA-treated GK rats
Experimental: With regard to lipid peroxidation, aortic tissues were homogenized in ice-cold tris-hydrochloric acid/buffer (pH 7.4) and butylated hydroxytoluene (BHT). Homogenates were centrifuged at 3,000×g at 4° C. for 10 min. An aliquot of the supernatant was combined with N-methyl-2-phenylindol (10.3) mmol/l in acetonitrile and methanol in the presence of methane sulfonic acid and BHT and the amount of malondialdehyde and 4-hydroxy-2-nonenal was assessed.

O=C(O)CCCCC1CCSS1 (stereo not drawn) [LA, alpha-lipoic acid]
protection of cell viability from hydrogen peroxide [1]: protected | diabetic vascular proinflammatory phenotype, aortic expression of IL-6 (IL-6): partially reversed | rate of gene expression of nox-1 subunit (nox-1): tended to reduce | NF-κB expression (NF-κB): significant increase | oxidative stress-mediated damage to protein (protein-bound carbonyls) (protein-bound carbonyls): partially reversed | oxidative stress-mediated damage to lipid (TBARS) [2]: partially reversed
